Our source for the IC50 values is patent publication USRE48711E1, “Apoptosis signal-regulating kinase inhibitors” (Gilead Sciences, Inc., priority 2009, dated 2021).

SMILES strings stand for the structures.

ASK1 (Apoptosis Signal-Regulating Kinase 1), sequence (Q99683 649-946): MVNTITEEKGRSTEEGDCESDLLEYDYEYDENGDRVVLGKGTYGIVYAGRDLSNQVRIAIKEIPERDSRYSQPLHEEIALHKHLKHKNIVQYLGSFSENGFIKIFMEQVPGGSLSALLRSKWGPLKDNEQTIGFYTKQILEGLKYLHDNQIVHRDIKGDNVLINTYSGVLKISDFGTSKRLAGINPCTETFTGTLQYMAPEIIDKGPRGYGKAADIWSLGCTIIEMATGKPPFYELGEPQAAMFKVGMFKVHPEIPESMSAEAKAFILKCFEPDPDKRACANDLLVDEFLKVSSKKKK

This assay addresses ASK1 (Apoptosis Signal-Regulating Kinase 1) (Homo sapiens (Human), UniProt Q99683). Description: ASK1 (Apoptosis Signal-Regulating Kinase 1) TR-FRET Kinase Assay (Biochemical IC50). To be noted: TR-FRET, biotin-MBP substrate, 20 min pre-incubation, ATP added as 300 μM solution.
Description: The ability of compounds to inhibit ASK1 kinase activity was determined using a time resolved fluorescence resonance energy transfer [TR-FRET] assay utilizing biotinylated myelin basic protein [biotin-MBP] as the protein substrate. […] The enzyme was allowed to pre-incubate with compound for 20 minutes prior to initiating the kinase reaction with the addition of 5 μL/well 300 μM ATP in buffer (50 mM MOPS, pH 7.0, 5 mM Mg-acetate, 1 mM DTT, 5% DMSO) using the Decrac Fluidics Equator. The kinase reactions were allowed to proceed for 20 minutes at ambient temperature and were subsequently stopped with the addition of 5 μL/well 25 mM EDTA using the Deerac Fluidics Equator. […] The TR-FRET signal was then read on a Perkin. Elmer Envision plate reader after incubating the plates at ambient temperature for 2 hours.
Turning to `C[C@H](n1cnnc1-c1cccc(NC(=O)c2cc(-c3ccc(C4CC4)nc3)ccn2)c1)C(F)(F)F` [Example 223, (S)-6-cyclopropyl-N-(3-(4-(1,1,1-trifluoropropan-2-yl)-4H-1,2,4-triazol-3-yl)phenyl)-3,4′-bipyridine-2′-carboxamide], the IC50 was 45 nM. This lies in the double-digit nanomolar range.
`CC[C@H](C)n1cnnc1-c1cccc(NC(=O)c2cc(-c3ccc(C4CC4)nc3)ccn2)c1` [Example 237, (S)-N-(3-(4-sec-butyl-4H-1,2,4-triazol-3-yl)phenyl)-6-cyclopropyl-3,4′-bipyridine-2′-carboxamide]: the concentration for half-maximal inhibition (IC50) was 38 nM.
Consider `CSc1ccc(-c2ccnc(C(=O)Nc3cccc(-c4nncn4C4CC4)c3)c2)cn1` [Example 131, N-(3-(4-cyclopropyl-4H-1,2,4-triazol-3-yl)phenyl)-6-(methylthio)-3,4′-bipyridine-2′-carboxamide], for which the IC50 was 11 nM.
With `CCN1CCN(c2ccnc(C(=O)Nc3cccc(-c4nncn4C4CC4)n3)c2)CC1=O` [Example 178, N-(6-(4-cyclopropyl-4H-1,2,4-triazol-3-yl)pyridin-2-yl)-4-(4-ethyl-3-oxopiperazin-1-yl)picolinamide] the figure was 7 nM; with `O=C(Nc1cccc(-c2nncn2C2CC2)c1)c1cc(-c2ccc(-c3ccc(Cl)nc3)nc2)ccn1` [Example 70, 6-Chloro-[3,2′:5′,4′]terpyridine-2″-carboxylic acid [3-(4-cyclopropyl-4H-[1,2,4]triazol-3-yl)-phenyl]-amide], 106 nM.
With `O=C(Nc1cccc(-c2nncn2C2CC2)c1)c1cc(-n2cnc(Cl)c2)ccn1` [Example 122, 4-(4-chloro-1H-imidazol-1-yl)-N-(3-(4-cyclopropyl-4H-1,2,4-triazol-3-yl)phenyl)picolinamide] the figure was 17 nM; with `O=C(Nc1cccc(-c2nncn2C2CC2)c1)c1cc(-c2nc(C3CC3)no2)ccn1` [Example 254, 4-(3-cyclopropyl-1,2,4-oxadiazol-5-yl)-N-(3-(4-cyclopropyl-4H-1,2,4-triazol-3-yl)phenyl)picolinamide], 1270 nM.
In turn, `O=C(Nc1cccc(-c2nncn2C2CC2)n1)c1cc(-n2cnc(C(F)(F)F)c2)ccn1` [Example 188, N-(6-(4-cyclopropyl-4H-1,2,4-triazol-3-yl)pyridin-2-yl)-4-(4-(trifluoromethyl)-1H-imidazol-1-yl)picolinamide] came in with an IC50 of 6 nM.
With `CS(=O)(=O)c1cccc(-c2ccnc(C(=O)Nc3cccc(-c4nncn4C4CC4)c3)c2)c1` [Example 77, N-(3-(4-cyclopropyl-4H-1,2,4-triazol-3-yl)phenyl)-4-(3-(methylsulfonyl)phenyl)picolinamide] the figure was 79 nM.
The figure for `O=C(Nc1cccc(-c2nncn2C2CC2)c1)c1cc(-c2nnc(C3CC3)s2)ccn1` [Example 270, 4-(5-cyclopropyl-1,3,4-thiadiazol-2-yl)-N-(3-(4-cyclopropyl-4H-1,2,4-triazol-3-yl)phenyl)picolinamide] is 107 nM.
With `Cc1cccc(C)c1OC[C@H](C)n1cnnc1-c1cccc(NC(=O)c2cc(-c3ccc(C4CC4)nc3)ccn2)c1` [Example 239, (S)-6-cyclopropyl-N-(3-(4-(1-(2,6-dimethylphenoxy)propan-2-yl)-4H-1,2,4-triazol-3-yl)phenyl)-3,4′-bipyridine-2′-carboxamide] the figure was 10900 nM; with `Cc1c(C(=O)O)ncn1-c1cccc(C(=O)Nc2cccc(-c3nncn3C3CC3)n2)c1` [Example 213, 1-(3-(6-(4-cyclopropyl-4H-1,2,4-triazol-3-yl)pyridin-2-ylcarbamoyl)phenyl)-5-methyl-1H-imidazole-4-carboxylic acid], 11 nM.
`O=C(Nc1cccc(-c2nncn2C2CC2)c1)c1cc(-c2cnc3scnn23)ccn1` [Example 121, N-(3-(4-cyclopropyl-4H-1,2,4-triazol-3-yl)phenyl)-4-(imidazo[2,1-b][1,3,4]thiadiazol-5-yl)picolinamide] showed an IC50 of 47 nM.
Consider `CC(C)c1cn(-c2ccnc(C(=O)Nc3cccc(-c4nncn4C4CC4)c3)c2)cn1` [Example 163, N-(3-(4-cyclopropyl-4H-1,2,4-triazol-3-yl)phenyl)-4-(4-isopropyl-1H-imidazol-1-yl)picolinamide], for which half-maximal inhibition (IC50) was put at 4 nM.
`C[C@@H](O)[C@H](C)n1cnnc1-c1cccc(NC(=O)c2cc(-c3ccc(C4CC4)nc3)ccn2)n1` [Example 247, 6-cyclopropyl-N-(6-(4-((2S,3R)-3-hydroxybutan-2-yl)-4H-1,2,4-triazol-3-yl)pyridin-2-yl)-3,4′-bipyridine-2′-carboxamide]: half-maximal inhibition (IC50) was put at 10 nM.
Turning to `CC(C)n1cnnc1-c1cccc(NC(=O)c2cc(-c3cccnc3)ccn2)c1` [Example 180, N-(3-(4-isopropyl-4H-1,2,4-triazol-3-yl)phenyl)-3,4′-bipyridine-2′-carboxamide], 27 nM corresponded to half-maximal inhibition (IC50).
With `O=C(Nc1cccc(-c2nncn2C2CC2)c1)c1cc(-c2cnc3ccccc3c2)cc(C(F)(F)F)n1` [Example 125, N-(3-(4-cyclopropyl-4H-1,2,4-triazol-3-yl)phenyl)-4-(quinolin-3-yl)-6-(trifluoromethyl)picolinamide] the figure was 1450 nM; with `O=C(Nc1cccc(-c2nncn2C2CC2)n1)c1cc(-n2cnc(C(F)(F)C(F)(F)F)c2)ccn1` [Example 199, N-(6-(4-cyclopropyl-4H-1,2,4-triazol-3-yl)pyridin-2-yl)-4-(4-(perfluoroethyl)-1H-imidazol-1-yl)picolinamide], 9 nM.
With `O=C(Nc1cccc(-c2nncn2C2CC2)c1F)c1cc(-c2cccnc2)ccn1` [Example 157, N-(3-(4-cyclopropyl-4H-1,2,4-triazol-3-yl)-2-fluorophenyl)-3,4′-bipyridine-2′-carboxamide] the figure was 38 nM; with `CCc1ccc(-c2ccnc(C(=O)Nc3cccc(-c4nncn4C4CC4)c3)c2)cn1` [Example 106, N-(3-(4-cyclopropyl-4H-1,2,4-triazol-3-yl)phenyl)-6-ethyl-3,4′-bipyridine-2′-carboxamide], 8 nM.
As for `C[C@H](n1cnnc1-c1cccc(NC(=O)c2cc(-c3cccnc3)ccn2)c1)C(F)(F)F` [Example 63, (S)-N-(3-(4-(1,1,1-trifluoropropan-2-yl)-4H-1,2,4-triazol-3-yl)phenyl)-3,4′-bipyridine-2′-carboxamide], the IC50 was 21 nM. This IC50 is about 2.6-fold higher than that of the compound before.
Compound `Cn1c(-c2ccnc(C(=O)Nc3cccc(-c4nncn4C4CC4)c3)c2)nnc1C1CC1` [Example 255, 4-(5-cyclopropyl-4-methyl-4H-1,2,4-triazol-3-yl)-N-(3-(4-cyclopropyl-4H-1,2,4-triazol-3-yl)phenyl)picolinamide] returned an IC50 of 685 nM.
The figure for `C[C@@H](c1ccccc1)n1cnnc1-c1cccc(NC(=O)c2cc(-c3ccc(C4CC4)nc3)ccn2)c1` [Example 220, (S)-6-cyclopropyl-N-(3-(4-(1-phenylethyl)-4H-1,2,4-triazol-3-yl)phenyl)-3,4′-bipyridine-2′-carboxamide] is 61 nM; for `Cn1cnnc1-c1cccc(NC(=O)c2cncc(-c3cccnc3)c2)c1` [Example 8, N-(3-(4-methyl-4H-1,2,4-triazol-3-yl)phenyl)-3,3′-bipyridine-5-carboxamide] it is 220 nM; for `O=C(Nc1cccc(-c2nncn2C2CC2)n1)c1cc(N2CCCC(O)C2)ccn1` (stereo not shown) [Example 175, N-(6-(4-cyclopropyl-4H-1,2,4-triazol-3-yl)pyridin-2-yl)-4-(3-hydroxypiperidin-1-yl)picolinamide] it is 10 nM.
